Measured values published in paper PMC3923778 (PLoS Currents, 2014).
Entries after “also recorded” stand apart in the source; their conditions may differ. Read-outs that look alike come from different tables or passages of the source.

How the values were obtained:
[1] = Pharmacokinetic analysis in mice; assay type: in vivo, mouse; settings: for half-life: read-out: Half-life (t1/2) (converted); for Tmax: read-out: Observed Tmax
Method: All PK studies were conducted at Charles River Laboratories (CRL), MA, USA. CRL is fully accredited by the Association for Assessment and Accreditation of Laboratory Animal Care International (AAALAC), and is registered with the United States Department of Agriculture (USDA). All procedures involving animals were conducted humanely and were performed by trained and experienced personnel. The individual study protocols were reviewed and approved by the IACUC of CRL. A total of 48 male C57BL/6NCRL mice were used. Animals were acclimated to the study room environment for 5 days prior to dose administration. Mice were individually housed in micro isolator cages, and were kept on a 12/12 hour light/dark cycle except when interrupted for study procedures. Mice were fed LabDiet Certified Rodent Diet 5002 food ad libitum, except during fasting prior to dose administration, and had access to water ad libitum. […] For the iv doses, the compound was formulated at 1 mg/mL as a dose solution in 2% […] (NMP), 14% Propylene Glycol (PG), 14% Solutol HS–15, 70% 50mM Citrate, pH 4.5 , by volume. For the po dose, the compound was formulated at 1 mg/mL as a solution in 30% PG, 20% Solutol HS–15, 50% 50mM Citrate, pH 4.5, by volume. Aliquots (25 μL) of samples, plasma, and tissue blanks (containing internal standard only), plasma and tissue double blanks (without internal standard), control blanks (solvent only), diluted dose (dilute in plasma from the study species prior to extraction) and matrix calibration standards were dispensed into 96-well plates. Extracting solution with internal standard (100 μL) was added to all samples except matrix double blanks and solvent blanks. Extracting solution without internal standard (100 μL) was added to matrix double blanks. Samples were vortexed and centrifuged for 5 minutes, and the supernatants were transferred to a new plate. An aliquot (50 μL) of Milli-Q water was added to the samples, which were covered and vortexed for 5 minutes. […] Reserpine was used as an internal standard in the LC-MS/MS assay. Mice were divided into four groups of 3 animals each. Two blood samples were collected from each mouse following dosing; the second collection was a terminal sample and brains were also collected at that time as follows: Group 1 at 0.083 and 0.5 hr, Group 2 at 0.25 and 2 hr, Group 3 at 1 and 8 hr and Group 4 at 4 and 24 hr., and brain tissue time points at 0.5, 2, 8 and 24 hr. Non-compartmental pharmacokinetic analyses of the plasma concentration time course were performed using WinNonlin, version 5.2 (Pharsight Corp., Mountain View, California).

R6/2 mice [2] = assay: Survival study in R6/2 mice; assay type: in vivo, mouse; settings: for Mean (±SEM) Survival Time / Medial Survival Time: R6/2 mice
PDE5 Cat = molecular target: T1, PDE5 Cat (Homo sapiens, UniProt O76074); assay: IMAP PDE activity assay (Scottish Biomedical); assay type: biochemical; settings: PDE5 Cat (catalytic domain)
T1 construct: using full length PDE5 versus the catalytic domain used in our assays; Scottish Biomedical (contract laboratory)

R6/2 mice [3] = assay: Grip Strength; assay type: in vivo, mouse; set-up: key to Grip Strength: direction of significant change vs Vehicle-treated R6/2 mice: ▲: significant enhancement compared to Vehicle-treated R6/2 mice (One-way ANOVA, Dunnett’s post-hoc); ▼: significant impairment compared to Vehicle-treated R6/2 mice (One-way ANOVA, Dunnett’s post-hoc)
Method: Motor function testing including open field and rear climbing tests were commenced at 4 weeks of age and continued at weeks 6, 8 and 12, for grip strength test at age weeks 4 and 12 and for rotarod at age weeks 4, 6 and 8. Compound treatment was started at 4 weeks of age after the baseline behavioral tests.
Grip strength measurement was performed at age weeks 4 and 12. The mice were tested on Monday afternoons. Mice were taken to the experimental room and, one at a time, were placed on the grip-strength apparatus (San Diego Instruments, San Diego, USA) in such a way that the animal grabs a small mesh grip with its forepaws. The entire apparatus is placed on a table top for testing. Animals are lowered to the platform and then slowly pulled away from the handle by the tail until the animal releases the handle. The equipment automatically measures the strength of the animal’s grip in grams. Five scores were recorded per animal in consecutive sequence. Mice were returned to their home cage after testing.
All values are presented as mean ± Standard Error of Mean (SEM), and differences are considered to be statistically significant at the p < 0.05 level. Statistical analysis was performed using StatsDirect statistical software. Differences between group means were analyzed by 1-way-ANOVA followed by Dunnett’s test (comparison to the control (=vehicle treated TG mice) group). The acquisition of the Cued two-choice swim test was analyzed using Fisher’s exact test.

[4] = male, C57BL/6NCRL, mouse, 5 mg/kg, Brain, IV 5.0 (mg eq./kg)
[5] = male, C57BL/6NCRL, mouse, 5 mg/kg, Plasma, IV 5.0 (mg eq./kg)
[6] = Age Week 12, 30 mg/kg p.o., BID

In the case of CN1C(=O)c2nc(Cc3ccc(C(F)(F)F)cc3)[nH]c2N2C1=N[C@H]1CCC[C@H]12 [SCH-51866, (+)-cis-5,6a,7,8,9,9a-hexahydro-2-[4-[trifluro-methyl]phenylmethyl]-5-methyl-cylopent[4,5]imidazo [2,1-b]purin-4(3H)one], the “brain concentration at Tmax exceeds the biochemical IC50 for PDE1” value ([1]; after oral administration) is reported as ~ 7 fold, the “time through which concentrations in brain were measurable for all animals” value ([1]; following dosing) is reported as 8 h and the AUC(0-inf) [1, 4] is reported as 8.23 µM·h. It also gave an AUC(0-t) [1, 4] of 8.18 µM·h, a half-life [1, 4] of 1.08 h and a Cmax ([1]; male, C57BL/6NCRL, mouse, 5 mg/kg, Brain, IV 5.0 (mg eq./kg), read-out: Observed Cmax) of 3560 nM. The AUC(0-inf) [1, 5] was 7.35 µM·h, the AUC(0-t) [1, 5] was 7.31 µM·h and the half-life [1, 5] was 3.87 h. For the same compound, the MRT ([1]; male, C57BL/6NCRL, mouse, 5 mg/kg, Plasma, IV 5.0 (mg eq./kg), read-out: Mean Residence Time (MRT)) was 2.57 h, the clearance ([1]; male, C57BL/6NCRL, mouse, 5 mg/kg, Plasma, IV 5.0 (mg eq./kg), read-out: Plasma Clearance (CLp) (converted)) was 29.2 mL/min/kg and the Vd ([1]; male, C57BL/6NCRL, mouse, 5 mg/kg, Plasma, IV 5.0 (mg eq./kg), read-out: Volume of Distribution at Steady State (Vdss)) was 4.48 L/kg. For the same compound, the AUC(0-t) ([1]; male, C57BL/6NCRL, mouse, 10 mg/kg, Brain, PO 10.0 (mg eq./kg)) was 2.2 µM·h, the Cmax ([1]; male, C57BL/6NCRL, mouse, 10 mg/kg, Brain, PO 10.0 (mg eq./kg), read-out: Observed Cmax) was 475 nM and the Tmax ([1]; male, C57BL/6NCRL, mouse, brain, iv, 5 mg/kg, Brain, IV 5.0 (mg eq./kg)) was 0.5 h. For the same compound, the Kp ([1]; male, C57BL/6NCRL, mouse, brain, oral, 10 mg eq./kg, mice, read-out: Brain-to-plasma concentration ratios) was 0.1 to 0.4, the Tmax ([1]; male, C57BL/6NCRL, mouse, brain, po, 10 mg/kg, Brain, PO 10.0 (mg eq./kg)) was 2 h and the Cmax ([1]; male, C57BL/6NCRL, mouse, plasma, 10 mg/kg po in mice, read-out: plasma Cmax exposure) was 2400 nM. For the same compound, the “Generalized Wilcoxon (Peto-Prentice) Test, Chi-square for equiv. of death rates p” value (R6/2 mice [2]; 10 mg/kg (p.o., BID) column) was “Chi-square for equiv. of death rates p=0.543”, the “Log-rank (Peto) Test, Chi-square for equiv. of death rates p” value (R6/2 mice [2]; 10 mg/kg (p.o., BID) column) was 0.555 and the “Mean (±SEM) Survival Time” value (R6/2 mice [2]; 10 mg/kg (p.o., BID)) was 115 (±7) days. For the same compound, the “Medial Survival Time” value (R6/2 mice [2]; 10 mg/kg (p.o., BID)) was 110 days, the “Generalized Wilcoxon (Peto-Prentice) Test, Chi-square for equiv. of death rates p” value (R6/2 mice [2]; 30 mg/kg (p.o., BID) column) was “Chi-square for equiv. of death rates p=0.543” and the “Log-rank (Peto) Test, Chi-square for equiv. of death rates p” value (R6/2 mice [2]; 30 mg/kg (p.o., BID) column) was 0.555. For the same compound, the “Mean (±SEM) Survival Time” value (R6/2 mice [2]; 30 mg/kg (p.o., BID)) was 122 (±5) days, the “Medial Survival Time” value (R6/2 mice [2]; 30 mg/kg (p.o., BID)) was 121 days and the “Survival, effect in words” value (R6/2 mice [2]; vs R6/2 vehicle-treated animals) was “no survival benefit”. For the same compound, the IC50 (PDE5 Cat) was 2.84 µM, the “Grip strength, effect in words” value (R6/2 mice [3]; 30 mg/kg, 12 weeks of age, vs R6/2 vehicle group) was “improvement in grip strength; also recorded: positive effect in improving grip strength; also recorded: significantly improved over the R6/2 vehicle group” and the “Grip Strength: p vs Vehicle-treated R6/2 mice” value (R6/2 mice [3]; Age Week 4, 10 mg/kg p.o., BID, ANOVA) was “ANOVA: p=0.612”. For the same compound, the “Grip Strength: p vs Vehicle-treated R6/2 mice” value (R6/2 mice [3]; Age Week 4, 30 mg/kg p.o., BID, ANOVA) was “ANOVA: p=0.612”, the “Grip Strength: p vs Vehicle-treated R6/2 mice” value (R6/2 mice [3]; Age Week 12, 10 mg/kg p.o., BID) was “p=0.860” and the “Grip Strength: direction of significant change vs Vehicle-treated R6/2 mice” value (R6/2 mice [3]; [6]) was “▲”. The “Grip Strength: p vs Vehicle-treated R6/2 mice” value (R6/2 mice [3]; [6]) was 0.006.
